The subject of one assay is HCT-116. Description: Tested for antiproliferative activity against HCT116 colorectal human carcinoma cell using WST-1 assay. In kind it is functional, cell-based.
The nature of assay [1]: Tested for inhibitory concentration required to inhibit 50% of histone deacetylase (HDAC) purified from human T cell leukemia Jurkat cell.
The nature of assay [2]: Tested for inhibitory concentration required to inhibit 50% of histone deacetylase (HDAC) from human T cell leukemia Jurkat cell. Type of assay: cell-based.

As to `O=C(NO)c1ccc(CNC(=O)c2ccc(-c3ccccc3)cc2)cc1`, the IC50 amounted to 3.2 µM in the assay with HCT-116 and 0.24 µM in assay [1].
In the same order, the values of `O=C(NCC1CCC(C(=O)NO)CC1)c1ccc(-c2ccccc2)cc1` (stereo not drawn) are 4.7 µM and 0.31 µM.
On the same counts, the results for `O=C(NO)c1ccc(CNC(=O)c2ccc3ccccc3c2)cc1` are 0.7 µM and 0.044 µM.
In the case of `O=C(NO)C1CCC(CNS(=O)(=O)c2ccccc2)CC1` (stereo not drawn), the half-maximal inhibitory concentration (IC50) in the assay with HCT-116 was 77.9 µM.
The same measure, in the same setting: for `O=C(NCc1ccc(C(=O)NO)cc1)NC12CC3CC(CC(C3)C1)C2` the value was 112 µM.
Take `O=C(NO)c1ccc(CNC(=O)c2cccc3ccccc23)cc1`: the 50% inhibitory concentration (IC50) with HCT-116 amounted to 9.7 µM; in assay [1], 0.83 µM.
On to `O=C(NCC1CCC(C(=O)NO)CC1)NC12CC3CC(CC(C3)C1)C2` (stereo not drawn), for which, in the assay with HCT-116, inhibition was half-maximal at 20.9 µM (IC50).
As for `Nc1ccccc1NC(=O)c1ccc(CNC(=O)OCc2cccnc2)cc1` [ENTINOSTAT], the IC50 in the assay with HCT-116 was 5.4 µM.
`CC(/C=C/C(=O)NO)=C\[C@@H](C)C(=O)c1ccc(N(C)C)cc1` [TRICHOSTATIN] came in with an IC50 in assay [2] of 0.0033 µM.

(Values after ChEMBL document CHEMBL1135106 (Bioorg Med Chem Lett, 2002).)
